Measured values as given in BindingDB's records for doi:10.1515/dmdi.1990.8.1-2.85 (Duphar, 1990).

Columns and labels:
[1] = biological target: Delta-type opioid receptor (Rattus norvegicus, UniProt P33533)
[2] = biological target: Pro-thyrotropin-releasing hormone (Rattus norvegicus, UniProt P01150)
[3] = biological target: Muscarinic acetylcholine receptor M2 (Rattus norvegicus, UniProt P10980)
[4] = biological target: 5-hydroxytryptamine receptor 2C (Sus scrofa, UniProt G7ZKZ7)
[5] = biological target: 5-hydroxytryptamine receptor 1B (Rattus norvegicus, UniProt P28564)
[6] = biological target: Gastrin/cholecystokinin type B receptor (Rattus norvegicus, UniProt P30553)
Protachykinin-1 = Protachykinin-1 (Rattus norvegicus, UniProt P06767)
D(1A) dopamine receptor = D(1A) dopamine receptor (Rattus norvegicus, UniProt P18901)
D(2) dopamine receptor = D(2) dopamine receptor (Rattus norvegicus, UniProt P61169)
Chain of D(2) dopamine receptor (P61169 whole entry): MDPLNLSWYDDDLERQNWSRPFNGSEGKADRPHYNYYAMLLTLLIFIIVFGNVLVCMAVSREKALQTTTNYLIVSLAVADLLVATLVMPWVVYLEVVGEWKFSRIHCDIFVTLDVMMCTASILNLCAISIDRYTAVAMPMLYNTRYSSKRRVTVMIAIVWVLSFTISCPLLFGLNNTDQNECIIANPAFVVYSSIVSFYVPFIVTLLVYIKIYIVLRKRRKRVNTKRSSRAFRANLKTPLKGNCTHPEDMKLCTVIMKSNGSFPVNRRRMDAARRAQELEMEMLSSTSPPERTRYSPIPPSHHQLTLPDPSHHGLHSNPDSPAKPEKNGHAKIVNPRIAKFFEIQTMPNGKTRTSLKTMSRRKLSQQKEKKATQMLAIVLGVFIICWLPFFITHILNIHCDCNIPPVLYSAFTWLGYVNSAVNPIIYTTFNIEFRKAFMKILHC

Histamine H1 receptor = Histamine H1 receptor (Rattus norvegicus, UniProt P31390)
Chain of Histamine H1 receptor (P31390 whole entry): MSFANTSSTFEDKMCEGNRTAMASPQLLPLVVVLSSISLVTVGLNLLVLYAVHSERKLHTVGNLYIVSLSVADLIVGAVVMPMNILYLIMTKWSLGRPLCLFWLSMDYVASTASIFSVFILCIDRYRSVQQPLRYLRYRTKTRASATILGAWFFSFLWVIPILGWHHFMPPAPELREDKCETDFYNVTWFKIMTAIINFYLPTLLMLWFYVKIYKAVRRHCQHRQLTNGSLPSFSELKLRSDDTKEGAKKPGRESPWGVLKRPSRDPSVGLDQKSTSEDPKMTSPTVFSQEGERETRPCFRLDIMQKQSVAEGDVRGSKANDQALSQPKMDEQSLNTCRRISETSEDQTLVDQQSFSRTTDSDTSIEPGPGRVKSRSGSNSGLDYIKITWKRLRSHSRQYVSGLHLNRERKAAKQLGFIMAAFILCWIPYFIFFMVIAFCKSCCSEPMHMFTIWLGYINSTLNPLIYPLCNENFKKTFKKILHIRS

[7] = biological target: Alpha-1A adrenergic receptor (Rattus norvegicus, UniProt P43140)
[8] = biological target: 5-hydroxytryptamine 1D receptor (Bos taurus, UniProt Q8MI13)
Chain of 5-hydroxytryptamine 1D receptor (Q8MI13 whole entry): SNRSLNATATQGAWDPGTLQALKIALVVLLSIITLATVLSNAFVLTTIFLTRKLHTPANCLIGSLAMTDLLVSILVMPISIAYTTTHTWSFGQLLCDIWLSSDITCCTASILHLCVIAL

[9] = biological target: Sigma non-opioid intracellular receptor 1 (Rattus norvegicus, UniProt Q9R0C9)
Chain of Sigma non-opioid intracellular receptor 1 (Q9R0C9 whole entry): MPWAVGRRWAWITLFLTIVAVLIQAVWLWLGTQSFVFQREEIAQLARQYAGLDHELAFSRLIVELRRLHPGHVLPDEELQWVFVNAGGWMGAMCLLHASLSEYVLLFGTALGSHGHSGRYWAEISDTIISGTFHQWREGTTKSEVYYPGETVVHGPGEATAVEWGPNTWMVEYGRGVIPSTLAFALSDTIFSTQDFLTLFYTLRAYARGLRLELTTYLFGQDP

[10] = biological target: Alpha-2C adrenergic receptor (Rattus norvegicus, UniProt P22086)
[11] = biological target: Muscarinic acetylcholine receptor M1 (Rattus norvegicus, UniProt P08482)
[12] = biological target: Voltage-dependent calcium channel gamma-1 subunit (Homo sapiens, UniProt Q06432)
[13] = biological target: Gamma-aminobutyric acid receptor subunit alpha-1 (Rattus norvegicus, UniProt P62813)
Chain of Gamma-aminobutyric acid receptor subunit alpha-1 (P62813 whole entry): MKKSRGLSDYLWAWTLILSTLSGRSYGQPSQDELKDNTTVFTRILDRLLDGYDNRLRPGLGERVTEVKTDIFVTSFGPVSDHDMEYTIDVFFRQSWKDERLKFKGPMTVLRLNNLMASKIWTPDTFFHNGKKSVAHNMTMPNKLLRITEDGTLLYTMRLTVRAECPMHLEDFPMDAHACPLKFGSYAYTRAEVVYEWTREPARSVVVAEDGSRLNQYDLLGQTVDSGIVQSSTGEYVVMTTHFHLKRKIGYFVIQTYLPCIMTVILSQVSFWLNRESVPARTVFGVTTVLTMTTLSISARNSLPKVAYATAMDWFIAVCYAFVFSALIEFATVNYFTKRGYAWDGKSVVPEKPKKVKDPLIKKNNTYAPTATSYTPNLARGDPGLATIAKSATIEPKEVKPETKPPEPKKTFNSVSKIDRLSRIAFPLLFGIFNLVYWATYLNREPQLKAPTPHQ

[14] = biological target: 5-hydroxytryptamine receptor 2A (Rattus norvegicus, UniProt P14842)
[15] = biological target: Beta-1 adrenergic receptor (Rattus norvegicus, UniProt P18090)
Chain of Beta-1 adrenergic receptor (P18090 whole entry): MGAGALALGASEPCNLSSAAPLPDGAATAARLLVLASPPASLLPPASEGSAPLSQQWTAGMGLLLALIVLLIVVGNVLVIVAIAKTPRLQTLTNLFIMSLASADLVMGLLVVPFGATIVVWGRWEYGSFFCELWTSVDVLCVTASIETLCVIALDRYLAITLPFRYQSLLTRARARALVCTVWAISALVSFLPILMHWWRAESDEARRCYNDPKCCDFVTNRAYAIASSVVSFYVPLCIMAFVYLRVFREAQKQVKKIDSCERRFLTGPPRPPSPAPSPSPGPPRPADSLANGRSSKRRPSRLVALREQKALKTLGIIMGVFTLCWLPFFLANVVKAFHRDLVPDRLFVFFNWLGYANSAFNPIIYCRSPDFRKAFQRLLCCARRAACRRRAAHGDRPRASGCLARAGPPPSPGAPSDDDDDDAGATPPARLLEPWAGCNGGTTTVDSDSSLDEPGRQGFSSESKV

[16] = biological target: Glycine amidinotransferase, mitochondrial (Rattus norvegicus, UniProt P50442)
Chain of Glycine amidinotransferase, mitochondrial (P50442 whole entry): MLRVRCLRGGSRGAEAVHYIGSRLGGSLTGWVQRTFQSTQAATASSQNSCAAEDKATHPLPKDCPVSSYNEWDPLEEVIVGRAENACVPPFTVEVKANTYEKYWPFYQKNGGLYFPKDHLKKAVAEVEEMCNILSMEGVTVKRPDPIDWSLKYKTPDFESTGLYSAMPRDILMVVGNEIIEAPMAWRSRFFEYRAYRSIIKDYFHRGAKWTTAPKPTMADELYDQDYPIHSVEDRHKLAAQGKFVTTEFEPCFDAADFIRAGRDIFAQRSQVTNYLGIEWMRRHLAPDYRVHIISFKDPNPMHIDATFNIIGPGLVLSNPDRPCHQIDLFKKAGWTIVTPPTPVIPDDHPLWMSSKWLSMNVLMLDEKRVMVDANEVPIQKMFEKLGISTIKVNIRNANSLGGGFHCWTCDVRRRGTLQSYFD

[17] = biological target: Calcium release-activated calcium channel protein 1 (Homo sapiens, UniProt Q96D31)
[18] = biological target: Muscarinic acetylcholine receptor M3 (Rattus norvegicus, UniProt P08483)
Chain of Muscarinic acetylcholine receptor M3 (P08483 whole entry): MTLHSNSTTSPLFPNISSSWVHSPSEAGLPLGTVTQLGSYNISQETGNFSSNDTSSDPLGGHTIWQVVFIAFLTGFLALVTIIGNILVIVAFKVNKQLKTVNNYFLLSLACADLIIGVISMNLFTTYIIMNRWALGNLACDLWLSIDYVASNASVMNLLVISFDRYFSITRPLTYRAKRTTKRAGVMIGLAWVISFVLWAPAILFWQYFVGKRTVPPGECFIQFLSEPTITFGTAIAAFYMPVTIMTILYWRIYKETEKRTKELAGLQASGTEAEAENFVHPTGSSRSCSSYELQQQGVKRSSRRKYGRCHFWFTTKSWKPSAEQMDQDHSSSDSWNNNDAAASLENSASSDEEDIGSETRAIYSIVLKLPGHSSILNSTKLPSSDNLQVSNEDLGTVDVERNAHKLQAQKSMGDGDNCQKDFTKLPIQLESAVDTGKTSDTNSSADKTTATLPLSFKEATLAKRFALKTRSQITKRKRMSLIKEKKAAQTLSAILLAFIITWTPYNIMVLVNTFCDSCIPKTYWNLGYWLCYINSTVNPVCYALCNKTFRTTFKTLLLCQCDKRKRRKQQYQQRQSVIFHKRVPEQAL

[19] = biological target: Glutamate receptor ionotropic, NMDA 1 (Rattus norvegicus, UniProt P35439)
[20] = biological target: Cysteinyl leukotriene receptor 1 (Cavia porcellus, UniProt Q2NNR5)
Chain of Cysteinyl leukotriene receptor 1 (Q2NNR5 whole entry): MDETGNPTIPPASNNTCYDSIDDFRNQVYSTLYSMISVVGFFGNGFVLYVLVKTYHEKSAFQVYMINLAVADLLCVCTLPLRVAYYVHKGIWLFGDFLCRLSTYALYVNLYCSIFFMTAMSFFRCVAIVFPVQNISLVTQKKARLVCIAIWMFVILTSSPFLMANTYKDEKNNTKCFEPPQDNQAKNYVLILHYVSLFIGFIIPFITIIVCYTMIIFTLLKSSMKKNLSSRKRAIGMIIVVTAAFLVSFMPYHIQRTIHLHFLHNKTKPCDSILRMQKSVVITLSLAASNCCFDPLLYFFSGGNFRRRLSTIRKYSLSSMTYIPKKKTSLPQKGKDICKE

[21] = biological target: 5-hydroxytryptamine receptor 3A (Mus musculus, UniProt P23979)
Mu-type opioid receptor = Mu-type opioid receptor (Rattus norvegicus, UniProt P33535)
Chain of Mu-type opioid receptor (P33535 whole entry): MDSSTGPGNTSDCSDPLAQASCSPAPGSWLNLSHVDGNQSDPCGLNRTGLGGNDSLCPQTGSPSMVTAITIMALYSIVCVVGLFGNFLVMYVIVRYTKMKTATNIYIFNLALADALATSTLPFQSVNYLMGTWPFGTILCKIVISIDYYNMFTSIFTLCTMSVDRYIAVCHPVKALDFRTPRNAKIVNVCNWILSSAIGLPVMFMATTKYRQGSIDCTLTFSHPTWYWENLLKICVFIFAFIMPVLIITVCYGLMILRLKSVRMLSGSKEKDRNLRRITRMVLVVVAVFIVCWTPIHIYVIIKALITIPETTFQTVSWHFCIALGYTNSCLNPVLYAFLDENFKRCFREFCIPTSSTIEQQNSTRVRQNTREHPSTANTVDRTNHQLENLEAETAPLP

[22] = biological target: Kappa-type opioid receptor (Rattus norvegicus, UniProt P34975)

Chain of Delta-type opioid receptor (P33533 whole entry): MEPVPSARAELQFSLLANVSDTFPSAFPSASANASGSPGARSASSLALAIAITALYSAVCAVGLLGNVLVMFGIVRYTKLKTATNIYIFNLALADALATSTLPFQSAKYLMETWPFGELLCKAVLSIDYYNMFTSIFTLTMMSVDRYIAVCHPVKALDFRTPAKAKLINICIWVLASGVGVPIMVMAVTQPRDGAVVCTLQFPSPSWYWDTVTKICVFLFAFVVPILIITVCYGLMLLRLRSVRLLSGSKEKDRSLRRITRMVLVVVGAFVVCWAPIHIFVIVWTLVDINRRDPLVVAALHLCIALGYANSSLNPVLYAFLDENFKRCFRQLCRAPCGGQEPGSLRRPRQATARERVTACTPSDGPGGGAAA
Chain of Muscarinic acetylcholine receptor M2 (P10980 whole entry): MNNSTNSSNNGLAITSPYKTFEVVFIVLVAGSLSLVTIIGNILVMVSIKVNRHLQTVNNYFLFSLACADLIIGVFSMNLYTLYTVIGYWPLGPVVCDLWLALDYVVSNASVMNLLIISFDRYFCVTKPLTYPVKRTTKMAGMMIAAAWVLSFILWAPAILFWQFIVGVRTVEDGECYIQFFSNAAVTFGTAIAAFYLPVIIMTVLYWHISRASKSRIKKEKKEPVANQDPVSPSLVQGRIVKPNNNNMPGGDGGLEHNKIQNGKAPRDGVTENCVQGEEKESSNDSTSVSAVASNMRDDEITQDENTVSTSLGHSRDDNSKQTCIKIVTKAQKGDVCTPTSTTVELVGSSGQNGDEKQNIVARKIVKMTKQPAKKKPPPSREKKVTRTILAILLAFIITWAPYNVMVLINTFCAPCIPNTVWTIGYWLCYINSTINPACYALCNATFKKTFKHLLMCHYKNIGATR

SMILES: c1cc2c(c(N3CCNCC3)c1)OCCO2 [1-(2,3-Dihydro-benzo[1,4]dioxin-5-yl)-piperazine]
- Ki [1]: > 10 µM
- Ki [2]: > 10 µM
- Ki [3]: > 10 µM
- Ki [4]: 0.081 µM
- Ki [5]: 0.052 µM
- Ki [6]: > 10 µM
- Ki (Protachykinin-1): > 10 µM
- Ki (D(1A) dopamine receptor): > 10 µM
- Ki (D(2) dopamine receptor): 1.1 µM
- Ki (Histamine H1 receptor): 3.9 µM
- Ki [7]: 0.79 µM
- Ki [8]: 0.39 µM
- Ki [9]: 9.3 µM
- Ki [10]: 3.1 µM
- Ki [11]: > 10 µM
- Ki [12]: > 10 µM
- Ki [13]: > 10 µM
- Ki [14]: 1.7 µM
- Ki [15]: 0.42 µM
- Ki [16]: > 10 µM
- Ki [17]: > 10 µM
- Ki [18]: > 10 µM
- Ki [19]: > 10 µM
- Ki [20]: > 10 µM
- Ki [21]: 1.3 µM
- Ki (Mu-type opioid receptor): > 10 µM
- Ki [22]: > 10 µM
